How the values were obtained:
[1] = system: moderately obese human subjects; experiment: Double-blind, placebo-controlled human clinical trial (serum serotonin, body weight, food intake); format: in vivo
Description: The effects of administering compositions within the scope of the present invention were tested. A double-blind, placebo-controlled human clinical trial was conducted using a composition incorporating: the HCA extract described above, or the HCA extract in combination with an oxygen-coordinated niacin-bound chromium (ChromeMate®, supplied by InterHealth), and a standardized Gymnema sylvestre extract (also supplied by InterHealth). Approximately 80 moderately obese human subjects were enrolled in the study. All subjects were placed on a daily diet of 2,000 kcal, weighing 2,250 grams. All food was prepared and delivered to the subjects, and all food intake was strictly supervised by trained dieticians. All subjects also underwent a 30 minute walking exercise program, five times a week, which was supervised by a trained exercise specialist. The subjects were randomly divided into three groups. The first group was given a placebo. The second group was given a daily dose of 4,667 mg of garcinia cambogia extract (providing 2,800 mg HCA per day). The third group was given a daily dose of 4,667 mg of a combination of garcinia cambogia (2,800 mg HCA), 4 mg of niacin-bound chromium (providing 400 mcg of elemental chromium), and 400 mg of Gymnema sylvestre extract (providing 100 mg […]). The subjects received their respective compositions in three equally-divided doses 30 to 60 minutes before breakfast, lunch and dinner for eight weeks. These dosage levels of HCA were determined by extrapolation of successful earlier animal trials, as well as review of optimal micromolar concentrations of HCA in ex vivo brain tissue resulting in maximum serotonin release. The persons were assessed for changes in serum serotonin levels, body weight, and food intake. As discussed above, increases in serum serotonin levels relate to reduced appetite. Food intake was measured by monitoring the amount of food left unconsumed after each meal by the subjects. The amount of food left unconsumed while taking either the placebo or either of the HCA compositions was compared to the amount of food left unconsumed before the subjects began taking the compositions (i.e., the baseline). Changes in each of these factors were measured in the persons and averaged to produce the figures in Table 1.

rat brain cortex slices = experiment: Radiolabeled serotonin release from isolated, superfused rat brain cortex slices in vitro; format: cell-based
Description: Methods previously known for studies of radiolabeled serotonin release were employed. Isolated rat brain cortex slices were incubated in oxygenated Krebs buffer solution containing 800 nM radiolabeled serotonin, the monoamine oxidase inhibitor pargyline (10 μM), and the cyclooxygenase inhibitor flurbiprofen (3 μM) at 37° C. […] Radiolabeled serotonin was purchased from NEN Life Sciences, Boston, Mass. The Krebs solution used had the following composition (millimolar): potassium chloride, 4.8; sodium chloride 118; calcium chloride, 1.3; potassium dihydrogen phosphate, 1.2; sodium bicarbonate, 25; magnesium sulfate, 2.0; and dextrose, 10 (pH 7.4).
After incubation, tissues were rinsed, mounted between nylon mesh-cloth and placed in thermostatically-controlled superfusion chambers. Tissues were superfused at a rate of 0.5 ml/min with oxygenated Krebs solution containing clomipramine (10 μM), a serotonin reuptake inhibitor. Fractions of the superfusate were collected at 6-minute intervals, and 3-ml aliquots of each fraction was combined with 12 ml of aqueous scintillation cocktail marketed under the name Ecolume, by ICN Radiochemicals of California) and analyzed for radioactivity by liquid scintillation spectrometry.
After an initial 2 hours of superfusion to establish a stable baseline of spontaneous tritium efflux, release of radiolabeled serotonin was elicited by consecutive potassium-depolarizing (K+, 50 mM) stimuli applied at 144 minutes (S1) and at 198 minutes (S2) after the onset of superfusion. In some experiments, tissues were exposed to different concentrations of HCA for 12 minutes before the second K+ stimuli at S2. When HCA was tested on its own, the K+ (50 mM; S1) peak was used as the standard (or control) response. In this case, effects induced by HCA on radiolabeled serotonin release were then compared with the standard K+ response. Both K+ and HCA-induced radiolabeled serotonin release were estimated by subtraction of the extrapolated basal tritium efflux from total tritium release in the 20-minute period after the onset of stimulation. Basal (unstimulated) tritium efflux was assumed to decline linearly between pre-stimulation and post-stimulation fractions. Stimulation-evoked radiolabeled serotonin release during S1 and S2 was determined graphically, and the ratio of the two peaks (S1/S2) was calculated and compared with untreated control preparations.
Results obtained were expressed as absolute S1/S2 ratios. Data from different experiments (control and test) were pooled and then subjected to statistical analysis. Except where indicated otherwise, values given are arithmetic means ±SEM. Significance of difference between control and test values was evaluated using analysis of variance (ANOVA) followed by Dunnett's test. […]

[2] = eight weeks, 2,800 mg HCA per day orally in three doses

## O=C(O)CC(O)(C(=O)O)C(O)C(=O)O (single isomer, unassigned; (-)) [HCA, (−)-hydroxycitric acid]
[1]; [2]
  Body weight, % decrease: 5.0%
  Serum serotonin level, % increase: 48.5%
  Serum serotonin level, mg/dl increase: 119.1 mg/dL
[1]; eight weeks, 2,800 mg HCA per day orally in three doses, 2,000 kcal diet and exercise
  Body weight, pounds lost: 10.0 pounds
[1]; eight weeks, compared with before taking the compositions
  Food left unconsumed, % increase from baseline: 206%
[1]; eight weeks, daily diet weighing 2,250 grams
  Food left unconsumed, grams: 249 grams
Rat brain cortex slices; HCA 10 μM-1 mM applied 12 minutes before second K+ (50 mM) stimulus
  Effect on second K+ response (K+-depolarization evoked radiolabeled serotonin release, S2): no significant effect
Rat brain cortex slices; HCA 10 μM-1 mM, rat brain cortex slices
  Effect on basal efflux of radiolabeled serotonin: concentration-related increase
Rat brain cortex slices; HCA 300 μM (maximal concentration)
  Overflow of radiolabeled serotonin compared with standard K+ (50 mM) response: equivalent to the release induced by the standard concentration of K+ (50 mM)
Rat brain cortex slices; tested range 10 μM-1 mM
  Concentration giving maximum basal efflux of radiolabeled serotonin: 300 µM

Source: patent US20030119913A1, “Method for increasing serotonin levels in a person by administration of a composition incorporating (-)-hydroxycitric acid, and related compositions thereof” (priority 2001, published 2003)
